Tested on: HIV-1 Lai (subtype B, X4)
Experiment: In vitro testing of antiviral activity in the HeLa-P4 assay (β-Galactosidase reporter, luminescence)
Type: cell-based
Experimental: • Viruses: HIV-1 Lai (subtype B, X4); titer: 8 x 10^4/ml; 20 µl/batch • Cells: HeLa-P4; 2.5 x 10^4/batch
HeLa-P4 cells (from NIH AIDS Research and Reference Program) are a cell line, which was transfected with genes for the human CD4- and […] receptor and which are therefore infectable with HIV-1 (the CXCR4-receptor is expressed on the cells). For quantification of the HIV infection, the cells carry a reporter gene, i.e. β-Galactosidase gen, which is under control of the HIV-1 promoter. After infection, the Tat-protein of HIV-1 transactivates the reporter gene and the degree of infection can be quantified by measurement of the enzyme activity in the lysate of the cells. An inhibition of HIV-1 infection results in a reduction of the β-Galactosidase activity with respect to the infection with viruses without substance addition. The background is defined by measuring the enzyme activity in cells, to which no virus was added. Since in principle a lower infection may also be based on toxic effects of the substances to the cells, in addition to said assay a cytotoxicity assay is also carried out.
The test substances are prepared by adding 1 mg of each extract/concentrate in an Eppendorf vial and dissolving the sample in 1 ml of RPMI medium. The solution is filtered under sterile conditions and placed in a new Eppendorf vial. As a positive control, the T20-peptide (a known HIV-1 entry inhibitor; Enfuvirtide) is used. Dilution series of the test compounds alone, combinations thereof as well as of T20 in cell culture medium were prepared, wherein the samples have concentrations of 5, 10, 25, and 50 µg/ml for Marrubium vulgare, Cistus incanus and Ribes nigrum and combinations of extracts of Marrubium vulgare and Cistus incanus, and Marrubium vulgare and Ribes nigrum. For Marrubium vulgare, Borago officinalis and combinations of extracts of Marrubium vulgare and Borago officinalis concentrations of 5 and 50 µg/ml were tested. The given concentrations in the combinations relate to the concentration of each single extract, e.g. a concentration of 5 µg/ml means 5 µg/ml of Marrubium vulgare and 5 µg/ml of the extract of the other plant (Cistus incanus, Ribes nigrum, Borago officinalis).
The positive control T20 is used in concentrations of 100 and 200 nM. Each of the substance concentrations was tested in triplicates.
Day 1: Each of the substance dilutions of Marrubium vulgare (5, 10, 25, 50, […]), Ribes nigrum (5, 10, 25, and 50 µg/ml), Cistus incanus (5, 10, 25, and 50 µg/ml) and Borago officinalis (5 and 50 µg/m) is mixed with 20 µl of the HIV-1 Lai virus stock (titer 8x10^4/ml), vortexed, and pre-incubated at 37 °C for 30 minutes. The virus/substance mixture is added to 2.5 x 10^4 HeLa-P4 cells corresponding to an m.o.i. of 0.06, vortexed and incubated for 2 h at 37 °C. Afterwards the supernatant is removed, the cells are washed with medium and 100 µl of fresh medium is added. The cells are incubated for 2 days at 37 °C.
Accordingly, each of the substance dilutions of combinations of Marrubium vulgare and Ribes nigrum (5, 10, 25, and 50 µg/ml), Marrubium vulgare and Cistus incanus (5, 10, 25, and 50 µg/ml) and Marrubium vulgare and Borago officinalis (5 and 50 µg/ml) is mixed with 20 µl of the HIV-1 Lai virus stock (titer 8x10^4/ml), vortexed, and pre-incubated at 37 °C for 30 minutes. The virus/substance mixture is added to 2.5 x 10^4 HeLa-P4 cells, vortexed and incubated for 2 h at 37 °C. Afterwards the supernatant is removed, the cells are washed with medium and 100 µl of fresh medium is added. The cells are incubated for 2 days at 37 °C.
Day 3: The supernatant is removed, the cells are washed with 100 µl of medium and lysed in 50 µl of lysis buffer per each well (2.5 ml glycerol; 1.25 ml MES-Tris, 25 µl 1 M DTT, 250 µl Triton X100, H2O ad 25 ml) for 10 minutes on ice and removed at -80 °C. […]

Enfuvirtide [T20]
LU (luminescence units) Average (100 nM): 16893 LU
LU (luminescence units) Trial 1 (100 nM): 23855 LU
LU (luminescence units) Trial 2 (100 nM): 13888 LU
LU (luminescence units) Trial 3 (100 nM): 12937 LU
LU (luminescence units) Average (200 nM): 8802 LU
LU (luminescence units) Trial 1 (200 nM): 9407 LU
LU (luminescence units) Trial 2 (200 nM): 7531 LU
LU (luminescence units) Trial 3 (200 nM): 9468 LU
